Data reported in patent publication US9278914B2, “SARMs and method of use thereof” (UNIVERSITY OF TENNESSEE RESEARCH FOUNDATION, priority 2004, dated 2016).

Test system: finishing pigs
Assay: Growth performance and carcass composition of finishing pigs
Assay type: in vivo, pig
Conditions: for lb FFL: fat free lean; for L side / R side: carcass; for lbs FFL/D: fat free lean gain per day
Description: Pigs were blocked by weight and allotted to one of four treatments with ten replicate pens per treatment. Pigs were housed with one pig per pen in an environmentally controlled finishing barn with 4 ft×4 ft slatted pens.
All animals were fed a corn-soybean meal diet with 1% corn oil. […] Final SARM concentrations were 1, 3, and 10 ppm. All animals were fed their respective diets for the duration of the study.
Pigs were allowed ad libitum access to feed and water. Pigs and feeders were weighed on day 7, 14, 21, and 28 to calculate average daily gain (ADG), average daily feed intake (ADFI), and feed-to-gain ratio (F/G or F:G). Each pen served as an experimental unit for all statistical analysis.
Pigs were slaughtered at the Kansas State University Meats Laboratory at the end of the study for collection of individual carcass data. At 24 hours postmortem, the right side of the carcass was frozen at −40° C. for approximately […]. After freezing, sides were ground once through a grinder equipped with a 19 mm die, then mixed and ground through a second grinder equipped with a 9.5 mm die. A sub sample of ground carcass was then chemically analyzed to determine percentages of crude protein, moisture/dry matter, lipid, and ash. Carcass measurements were done on the left side of the carcass, and a sample of lean and fat was taken from the longissimus at approximately the 10th rib.
The data were analyzed as a randomized complete-block design. Analysis of variance was performed by using the MIXED procedure of SAS. Linear and quadratic contrasts were used to evaluate the effects of increasing the level of the SARM on growth and carcass performance.

`C[C@](O)(COc1ccc(Cl)c(F)c1)C(=O)Nc1ccc(C#N)c(C(F)(F)F)c1` [S-II, (S)-3-(4-chloro-3-fluorophenoxy)-N-(4-cyano-3-(trifluoromethyl)phenyl)-2-hydroxy-2-methylpropanamide] was tested, and the “Carcass Wt” value (1 PPM) was 201, the “Live Wt” value (1 PPM) was 289 and the “Carcass Wt” value (3 PPM) was 200. For the same molecule, the “Live Wt” value (3 PPM) was 288, the “Carcass Wt” value (10 PPM) was 197 and the “Live Wt” value (10 PPM) was 281. The “ADFI (average daily feed intake)” value (Day 0-7, 1 ppm in diet) was 7.56, the “ADG (average daily gain)” value (Day 0-7, 1 ppm in diet) was 2.89 and the “ADFI (average daily feed intake)” value (Day 0-7, 3 ppm in diet) was 7.54. For the same molecule, the “ADG (average daily gain)” value (Day 0-7, 3 ppm in diet) was 2.37, the “ADG (average daily gain)” value (Day 0-7, 10 ppm in diet) was 2.17 and the “ADFI (average daily feed intake)” value (Day 0-7, 10 ppm in diet, listed as SARM) was 7.4. For the same molecule, the “ADG (average daily gain)” value (Day 0-28 (total), 1 ppm in diet) was 2.74, the “ADG (average daily gain)” value (Day 0-28 (total), 3 ppm in diet, listed as SARM) was 2.7 and the “ADG (average daily gain)” value (Day 0-28 (total), 10 ppm in diet, listed as SARM) was 2.5. The “ADFI (average daily feed intake)” value (Day 0-28, 1 ppm in diet) was 8.28, the “ADFI (average daily feed intake)” value (Day 0-28, 3 ppm in diet) was 8.38 and the “ADFI (average daily feed intake)” value (Day 0-28, 10 ppm in diet) was 7.85. The “ADFI (average daily feed intake)” value (Day 8-14, 1 ppm in diet) was 8.74, the “ADG (average daily gain)” value (Day 8-14, 1 ppm in diet) was 2.59 and the “ADG (average daily gain)” value (Day 8-14, 3 ppm in diet) was 2.65. For the same molecule, the “ADFI (average daily feed intake)” value (Day 8-14, 3 ppm in diet, listed as SARM) was 8.5, the “ADFI (average daily feed intake)” value (Day 8-14, 10 ppm in diet) was 7.89 and the “ADG (average daily gain)” value (Day 8-14, 10 ppm in diet) was 2.37. The “ADFI (average daily feed intake)” value (Day 15-21, 1 ppm in diet) was 8.33, the “ADG (average daily gain)” value (Day 15-21, 1 ppm in diet) was 2.33 and the “ADFI (average daily feed intake)” value (Day 15-21, 3 ppm in diet) was 8.61. The “ADG (average daily gain)” value (Day 15-21, 3 ppm in diet) was 2.65, the “ADFI (average daily feed intake)” value (Day 15-21, 10 ppm in diet) was 7.78 and the “ADG (average daily gain)” value (Day 15-21, 10 ppm in diet) was 2.43. The “ADFI (average daily feed intake)” value (Day 22-28, 1 ppm in diet) was 8.51, the “ADG (average daily gain)” value (Day 22-28, 1 ppm in diet) was 3.15 and the “ADFI (average daily feed intake)” value (Day 22-28, 3 ppm in diet) was 8.89. The “ADG (average daily gain)” value (Day 22-28, 3 ppm in diet) was 3.15, the “ADFI (average daily feed intake)” value (Day 22-28, 10 ppm in diet) was 8.33 and the “ADG (average daily gain)” value (Day 22-28, 10 ppm in diet) was 3.03. The Gain (Days 0-7, 1 PPM) was 20.3, the Gain (Days 0-7, 3 PPM) was 16.6 and the Gain (Days 0-7, 10 PPM) was 15.2. The Gain (Days 8-14, 1 PPM) was 18.2, the Gain (Days 8-14, 3 PPM) was 18.6 and the Gain (Days 8-14, 10 PPM) was 16.6. It also gave a Gain (Days 15-21, 1 PPM) of 16.3, a Gain (Days 15-21, 3 PPM) of 18.5 and a Gain (Days 15-21, 10 PPM) of 17.0. It also gave a Gain (Days 22-28, 1 PPM) of 22.0, a Gain (Days 22-28, 3 PPM) of 22.0 and a Gain (Days 22-28, 10 PPM) of 21.2. For the same molecule, the “average daily gain (ADG) over the course of the study, trend” value (FIG. 5A) was “increased”, the “fat free lean gain per day, trend” value (FIG. 5C) was “increased” and the “ADG for days 21-28, trend” value (FIG. 5D) was “dramatically increased”. For the same molecule, the “improvement in lean percent” value (SARM-treated pigs vs control) was at most 2%, the “improvement in pounds of fat free lean” value (SARM-treated pigs vs control) was at most 2% and the “increase in loin eye area (LEA)” value (SARM-treated pigs vs control) was at most 4%. The 1st rib fat (Table 6, 1 ppm) was 1.47 in, the 10th rib fat (Table 6, 1 ppm) was 0.78 in and the Dress (Table 6, 1 ppm) was 69.6%. The Fat free lean (Table 6, 1 ppm) was 106.9 lb, the “Heart Wt” value (Table 6, 1 ppm) was 1.04 lb and the “Kidney Wt” value (Table 6, 1 ppm) was 1.2 lb. The LEA (Table 6, 1 ppm) was 7.26 in^2, the “Last lumbar fat (row head printed only as 'in')” value (Table 6, 1 ppm) was 0.77 in and the Last rib fat (Table 6, 1 ppm) was 0.9 in. For the same molecule, the Lean (Table 6, 1 ppm) was 53.2%, the “Liver Wt” value (Table 6, 1 ppm) was 4.58 lb and the 1st rib fat (Table 6, 3 ppm) was 1.48 in. It also gave a 10th rib fat (Table 6, 3 ppm) of 0.8 in, a Dress (Table 6, 3 ppm) of 69.3% and a Fat free lean (Table 6, 3 ppm) of 105.5 lb. The “Heart Wt” value (Table 6, 3 ppm) was 1.07 lb, the “Kidney Wt” value (Table 6, 3 ppm) was 1.18 lb and the LEA (Table 6, 3 ppm) was 7.22 in^2. The “Last lumbar fat (row head printed only as 'in')” value (Table 6, 3 ppm) was 0.82 in, the Last rib fat (Table 6, 3 ppm) was 0.91 in and the Lean (Table 6, 3 ppm) was 52.9%. For the same molecule, the “Liver Wt” value (Table 6, 3 ppm) was 4.95 lb, the 1st rib fat (Table 6, 10 ppm) was 1.43 in and the 10th rib fat (Table 6, 10 ppm) was 0.74 in. The Dress (Table 6, 10 ppm) was 70%, the Fat free lean (Table 6, 10 ppm) was 106.7 lb and the “Heart Wt” value (Table 6, 10 ppm) was 1.01 lb. The “Kidney Wt” value (Table 6, 10 ppm) was 1.16 lb, the LEA (Table 6, 10 ppm) was 7.59 in^2 and the “Last lumbar fat (row head printed only as 'in')” value (Table 6, 10 ppm) was 0.74 in. For the same molecule, the Last rib fat (Table 6, 10 ppm) was 0.86 in, the Lean (Table 6, 10 ppm) was 54.3% and the “Liver Wt” value (Table 6, 10 ppm) was 4.84 lb. For the same molecule, the 1st rib fat (Table 7, 1 PPM) was 1.47, the 10th rib fat (Table 7, 1 PPM) was 0.780 and the Dress % (Table 7, 1 PPM) was 70%. For the same molecule, the “Heart Wt” value (Table 7, 1 PPM) was 1.04, the “Kidney Wt” value (Table 7, 1 PPM) was 1.20 and the Last lumbar fat (Table 7, 1 PPM) was 0.770. The Last rib fat (Table 7, 1 PPM) was 0.900, the “Liver Wt” value (Table 7, 1 PPM) was 4.58 and the 1st rib fat (Table 7, 3 PPM) was 1.48. For the same molecule, the 10th rib fat (Table 7, 3 PPM) was 0.800, the Dress % (Table 7, 3 PPM) was 69% and the “Heart Wt” value (Table 7, 3 PPM) was 1.07. For the same molecule, the “Kidney Wt” value (Table 7, 3 PPM) was 1.18, the Last lumbar fat (Table 7, 3 PPM) was 0.815 and the Last rib fat (Table 7, 3 PPM) was 0.905. The “Liver Wt” value (Table 7, 3 PPM) was 4.95, the 1st rib fat (Table 7, 10 PPM) was 1.43 and the 10th rib fat (Table 7, 10 PPM) was 0.735. For the same molecule, the Dress % (Table 7, 10 PPM) was 70%, the “Heart Wt” value (Table 7, 10 PPM) was 1.01 and the “Kidney Wt” value (Table 7, 10 PPM) was 1.16. The Last lumbar fat (Table 7, 10 PPM) was 0.740, the Last rib fat (Table 7, 10 PPM) was 0.855 and the “Liver Wt” value (Table 7, 10 PPM) was 4.84. The “lb FFL” value (Table 7, 1 PPM) was 107 lb, the “lb FFL” value (Table 7, 3 PPM) was 106 lb and the “lb FFL” value (Table 7, 10 PPM) was 107 lb. For the same molecule, the LEA (Table 7, loin eye area, 1 PPM) was 7.26, the LEA (Table 7, loin eye area, 3 PPM) was 7.22 and the LEA (Table 7, loin eye area, 10 PPM) was 7.59. The L side (1 PPM) was 98.0, the R side (1 PPM) was 103 and the L side (3 PPM) was 97.7. The R side (3 PPM) was 102, the L side (10 PPM) was 96.8 and the R side (10 PPM) was 99.8. The “lbs FFL/D” value (1 PPM) was 0.822 lbs/D, the “lbs FFL/D” value (3 PPM) was 0.774 lbs/D and the “lbs FFL/D” value (10 PPM) was 0.814 lbs/D. For the same molecule, the “Day 0-7 F:G, effect of treatment” value (linear contrast) was “significantly increased”, the “Day 8-14 average daily feed intake (ADFI), effect of treatment” value (linear contrast) was “decreased” and the “carcass crude fat, effect of feeding” value (pig, in vivo) was “reducing”.
